# Assay results taken from patent US8785478B2, “Viral polymerase inhibitors” (Biota Scientific Management Pty Ltd, priority 2012, dated 2014).
# Like-named read-outs stand apart in the source and are kept apart here.
# Key:
# [1] = molecular target: T1, 1b (BK) NS5BΔ21 (Hepatitis C virus genotype 1b, UniProt P26663); assay: HCV Polymerase Inhibition Assay; assay type: biochemical; details: NS5B G1b (IC50 μM), genotype 1b polymerase
# T1 construct: 100 nM, 1b (BK) NS5BΔ21
# Protocol: HCV polymerase reactions were carried out using a modified method of Howe et al., Antimicrobial Agents and Chemotherapy 2004 48(12): 4813-4821. Reactions contained a final concentration of, 0.5% DMSO, 100 nM, 1b (BK) NS5BΔ21, 20 mM Tris-HCl pH 7.5, 5 mM MgCl2, 5 mM MnCl2, 3 mM DTT, 0.05% BSA, 0.2 U/μL RNasin, 10 μg/mL Poly(rC) template, GTP (at Km) and 0.05 μCi/μL ^33P-GTP in a total reaction volume of 50 μL. Compounds were tested in a three fold dilution series, for example starting from 50 μM. Reactions were initiated with the addition of GTP and terminated after 90 min with 50 μL ice cold 0.2 M EDTA. Terminated reactions were transferred to DEAE 96-well filter plates, unincorporated nucleotides washed from the filters and 50 μL scintillation fluid added prior to reading on a scintillation counter. The compound concentration that reduced ^33P-GTP incorporation by 50% (IC50) was calculated using non-linear regression.
# [2] = Cytotoxicity analysis (MTT); assay type: cell-based; details: genotype 1b replicon cells, three days, read-out: G1b (CC50 μM)
# Protocol: Cytotoxicity of compounds against genotype 1b replicon cells was determined via metabolism of the vital dye 3-(4,5-dimethylthiaxol-2-yl)-2,5-diphenyltetrazolium bromide (MTT, for example see Watanabe et al., Journal of Virological Methods 1994 48:257-265). Plates were prepared as described for the HCV Replicon assay and cytotoxicity of the test article was evaluated after three days. MTT was added to assay plates followed by three hour incubation at 37° C. Wells were aspirated to dryness and the formazan dye dissolved by the addition of isopropanol. Absorbance values were read at 540/690 nm). The compound concentration that reduced cell viability by 50% (CC50) was calculated using non-linear regression.
# [3] = test system: genotype 1b (Con 1) subgenomic replicon cell line; assay: HCV replicon assay, genotype 1b (Renilla luciferase); assay type: cell-based; details: Hepatitis C virus; genotype 1b replicon; read-out: G1b (EC50 μM)
# Protocol: (§1) A genotype 1b (Con 1) subgenomic replicon cell line based on Blight et al., Science 2000 290: 1972-1974, modified to express a Renilla luciferase reporter gene was used to assess antiviral activity of test compounds. Cell cultures were maintained in a sub-confluent state in DMEM with glutamine, 10% heat-inactivated foetal bovine serum (FBS) and G418 (Geneticin®).
# (§2) For assay, cells were seeded at a density of 7000 cells/well into 96 well tissue culture trays in culture media lacking G418. Compounds were tested in a three fold dilution series, for example starting from 50 uM. After 72 hours incubation at 37° C. and 5% CO2, Renilla luciferase activity was quantified via the Promega Renilla Luciferase or Renilla-Glo™ Luciferase Assay Systems (Promega corporation. The same method was employed for replicon assays using subgenomic genotype 1a (H77) and 2a (JFH-1) replicon cell lines with a seeding cell density of 5000 cells/well for the 2a cell lines.
# (§3) The compound concentration that reduced luciferase activity by 50% (EC50) was calculated using non-linear regression.
# [4] = test system: subgenomic genotype 1a (H77) replicon cell line; assay: HCV replicon assay, genotype 1a (Renilla luciferase); assay type: cell-based; details: Hepatitis C virus; genotype 1a replicon; read-out: G1a (EC50 μM)
# Protocol: as §1, §2, §3
# [5] = test system: subgenomic genotype 2a (JFH-1) replicon cell line; assay: HCV replicon assay, genotype 2a (Renilla luciferase); assay type: cell-based; details: Hepatitis C virus; genotype 2a replicon; read-out: G2a (EC50 μM)
# Protocol: as §1, §2, §3
# [6] = Aqueous solubility (laser nephelometry); assay type: physicochemical; details: for solubility at 30 min: aqueous assay buffer with 1% DMSO, kinetic from dmso stock, 30 minute incubation at 25° C.
# Protocol: Test compounds prepared in DMSO were screened in duplicate over a range of concentrations (1.6-100 ug/mL) in different aqueous media (for example a pH6.5 buffers which are relevant to the stomach and upper regions of the small intestine and therefore important when predicting the amount of drug likely to be in solution following oral administration). Test compounds were serially diluted in 100% DMSO ranging from 10-0.16 mg/mL. These titrated DMSO stocks were then further diluted 1:100 with assay buffer and added to test plates (UV Star Griener 384 well plates), maintaining the DMSO concentration at 1%.
# T1 sequence (P26663 2420-2989, stated change not applied): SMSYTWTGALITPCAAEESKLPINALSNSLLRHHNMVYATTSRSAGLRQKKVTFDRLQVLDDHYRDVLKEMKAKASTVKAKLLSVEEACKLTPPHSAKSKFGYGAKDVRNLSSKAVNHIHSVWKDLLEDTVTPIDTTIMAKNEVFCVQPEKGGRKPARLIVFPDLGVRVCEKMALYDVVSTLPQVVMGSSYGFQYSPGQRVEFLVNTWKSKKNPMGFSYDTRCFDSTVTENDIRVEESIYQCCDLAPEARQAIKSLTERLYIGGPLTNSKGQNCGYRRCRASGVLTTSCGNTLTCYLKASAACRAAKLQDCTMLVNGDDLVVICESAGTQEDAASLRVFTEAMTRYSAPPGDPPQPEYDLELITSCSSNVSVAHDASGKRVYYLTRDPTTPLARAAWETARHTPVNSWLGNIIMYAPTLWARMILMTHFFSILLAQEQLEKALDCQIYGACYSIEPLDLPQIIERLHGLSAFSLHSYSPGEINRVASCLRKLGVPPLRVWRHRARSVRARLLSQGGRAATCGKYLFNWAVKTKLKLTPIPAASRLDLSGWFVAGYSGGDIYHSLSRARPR
smiles,measurement,setting,value
"CCN(c1cc2nn(-c3ccc(C)nc3)c(C(=O)NC)c2cc1C1CC1)S(C)(=O)=O [Compound A, 5-Cyclopropyl-6-[ethyl(methylsulfonyl)amino]-N-methyl-2-(6-methylpyridin-3-yl)-2H-indazole-3-carboxamide, reference compound]",IC50,[1],3.36 µM
same,CC50 at 3 days,[2],> 50 µM
same,EC50,[3],0.774 µM
same,EC50,[4],3.17 µM
same,EC50,[5],3.59 µM
same,solubility at 30 min,"[6]; aqueous buffer, pH 6.5, 1% DMSO, read-out: Solubility pH 6.5",6.3 to 12.5 µg/mL
same,solubility at 30 min,"[6]; simulated gastric fluid, pH 2, 1% DMSO, read-out: Solubility pH 2",< 1.6 µg/mL
same,solubility in words,[6]; at both pH2 and pH 6.5,very poorly soluble
